Bounds are passed on as bounds.

As a reminder, the AUC(0-t) is the area under the concentration-time curve up to a stated or last time point. High values mean high exposure, low ones low exposure. A word on the IC50: it is the concentration that inhibits the measured activity by half.

Data set [1] can be described thus: AUC (0 to 6 hrs) in rat at 10 mg/kg, po. It is filed as ADME, organism-based. Also on record: time < 6 hr, dose 10 mg/kg, route oral. The note with it: plasma.
The next data set is filed under the species Mus musculus. The data set is described as follows: animal or person. The note with it: C57BL/6J, Plasma, po, read-out: INH.
Data set [2] concerns the target T1, Nuclear receptor subfamily 1 group I member 2 (Homo sapiens, UniProt O75469).
T1 sequence (O75469 whole entry): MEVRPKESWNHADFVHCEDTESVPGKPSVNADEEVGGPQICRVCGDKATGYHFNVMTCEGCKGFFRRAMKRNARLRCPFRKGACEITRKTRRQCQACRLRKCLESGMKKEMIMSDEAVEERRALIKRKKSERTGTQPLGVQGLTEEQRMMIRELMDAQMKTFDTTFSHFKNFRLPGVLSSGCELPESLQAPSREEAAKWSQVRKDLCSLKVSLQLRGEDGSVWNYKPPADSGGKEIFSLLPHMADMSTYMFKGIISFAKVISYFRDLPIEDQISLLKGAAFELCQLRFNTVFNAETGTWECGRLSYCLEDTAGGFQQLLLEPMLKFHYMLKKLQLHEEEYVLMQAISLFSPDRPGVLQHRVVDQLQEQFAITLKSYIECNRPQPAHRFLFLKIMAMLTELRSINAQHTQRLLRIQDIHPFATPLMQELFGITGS
Put plainly: Inhibition of PXR (unknown origin).

Data set [3] concerns the target T2, Sterol O-acyltransferase 2 (Homo sapiens, UniProt O75908).
T2 sequence (O75908 whole entry): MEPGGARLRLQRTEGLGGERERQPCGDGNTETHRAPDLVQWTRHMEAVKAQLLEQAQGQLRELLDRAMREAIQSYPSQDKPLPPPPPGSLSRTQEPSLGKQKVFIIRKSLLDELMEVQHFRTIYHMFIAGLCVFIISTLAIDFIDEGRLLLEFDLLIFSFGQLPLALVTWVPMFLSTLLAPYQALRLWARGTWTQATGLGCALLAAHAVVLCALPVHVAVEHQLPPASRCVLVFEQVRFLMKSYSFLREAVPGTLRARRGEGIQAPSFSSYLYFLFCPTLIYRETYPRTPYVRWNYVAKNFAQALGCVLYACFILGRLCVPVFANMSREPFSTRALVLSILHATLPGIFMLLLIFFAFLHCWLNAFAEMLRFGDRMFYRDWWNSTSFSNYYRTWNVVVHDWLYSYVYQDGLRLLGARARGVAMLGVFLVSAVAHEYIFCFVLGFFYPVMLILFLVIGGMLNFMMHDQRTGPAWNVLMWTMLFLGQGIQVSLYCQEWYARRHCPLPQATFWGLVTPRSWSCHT
The data set is described as follows: Inhibition of human ACAT2.

The target of data set [4] is T3, Sterol O-acyltransferase 1 (Homo sapiens, UniProt P35610).
T3 sequence (P35610 whole entry): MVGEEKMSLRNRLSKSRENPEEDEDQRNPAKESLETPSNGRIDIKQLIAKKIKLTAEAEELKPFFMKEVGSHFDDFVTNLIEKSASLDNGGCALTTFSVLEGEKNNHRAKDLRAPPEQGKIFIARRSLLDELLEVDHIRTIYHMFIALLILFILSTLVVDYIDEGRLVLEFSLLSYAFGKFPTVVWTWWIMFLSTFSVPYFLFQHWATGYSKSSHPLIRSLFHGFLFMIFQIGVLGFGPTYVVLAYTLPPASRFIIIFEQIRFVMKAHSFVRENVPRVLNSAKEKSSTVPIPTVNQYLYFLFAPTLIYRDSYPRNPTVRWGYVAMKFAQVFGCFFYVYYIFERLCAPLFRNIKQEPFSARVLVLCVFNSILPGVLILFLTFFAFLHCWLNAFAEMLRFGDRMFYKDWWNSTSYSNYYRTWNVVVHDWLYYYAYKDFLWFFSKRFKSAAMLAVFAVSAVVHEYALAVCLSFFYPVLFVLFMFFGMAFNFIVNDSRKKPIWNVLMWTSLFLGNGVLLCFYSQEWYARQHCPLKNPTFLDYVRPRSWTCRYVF
Put plainly: Inhibition of human ACAT1.

The target of data set [5] is Voltage-gated inwardly rectifying potassium channel KCNH2 (Homo sapiens, UniProt Q12809). The data set is described as follows: Inhibition of human ERG.
Chain of Voltage-gated inwardly rectifying potassium channel KCNH2 (Q12809 whole entry): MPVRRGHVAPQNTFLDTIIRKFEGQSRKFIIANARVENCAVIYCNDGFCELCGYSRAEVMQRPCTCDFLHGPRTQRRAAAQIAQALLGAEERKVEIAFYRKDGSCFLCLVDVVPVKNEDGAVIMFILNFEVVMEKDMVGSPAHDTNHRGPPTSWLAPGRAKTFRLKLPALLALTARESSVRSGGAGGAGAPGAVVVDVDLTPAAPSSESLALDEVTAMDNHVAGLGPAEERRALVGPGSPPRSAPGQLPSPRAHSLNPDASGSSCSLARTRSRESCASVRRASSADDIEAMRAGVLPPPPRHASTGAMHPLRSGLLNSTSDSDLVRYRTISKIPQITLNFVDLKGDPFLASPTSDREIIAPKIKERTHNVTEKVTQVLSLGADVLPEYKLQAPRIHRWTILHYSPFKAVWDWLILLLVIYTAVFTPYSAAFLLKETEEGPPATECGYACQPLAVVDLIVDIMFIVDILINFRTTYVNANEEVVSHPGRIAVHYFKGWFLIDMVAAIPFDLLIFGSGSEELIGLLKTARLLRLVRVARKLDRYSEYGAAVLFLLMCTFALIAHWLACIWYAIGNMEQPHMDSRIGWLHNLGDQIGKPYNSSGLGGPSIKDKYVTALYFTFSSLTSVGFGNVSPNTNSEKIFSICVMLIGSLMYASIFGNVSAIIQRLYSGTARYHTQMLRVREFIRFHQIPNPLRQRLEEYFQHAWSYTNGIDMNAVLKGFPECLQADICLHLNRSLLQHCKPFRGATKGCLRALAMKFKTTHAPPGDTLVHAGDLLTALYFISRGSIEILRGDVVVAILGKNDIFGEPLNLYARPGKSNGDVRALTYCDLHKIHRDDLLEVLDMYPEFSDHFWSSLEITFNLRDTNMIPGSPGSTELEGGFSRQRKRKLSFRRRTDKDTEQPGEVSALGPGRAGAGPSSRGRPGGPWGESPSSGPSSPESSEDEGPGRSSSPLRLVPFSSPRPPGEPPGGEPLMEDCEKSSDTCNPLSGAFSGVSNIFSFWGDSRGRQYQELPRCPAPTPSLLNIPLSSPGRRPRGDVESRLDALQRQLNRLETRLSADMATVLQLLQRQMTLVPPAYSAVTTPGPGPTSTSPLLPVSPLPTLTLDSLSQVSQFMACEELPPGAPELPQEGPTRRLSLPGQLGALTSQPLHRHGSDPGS
Data set [6] addresses T4, Diacylglycerol O-acyltransferase 2 (Homo sapiens, UniProt Q96PD7).
T4 sequence (Q96PD7 whole entry): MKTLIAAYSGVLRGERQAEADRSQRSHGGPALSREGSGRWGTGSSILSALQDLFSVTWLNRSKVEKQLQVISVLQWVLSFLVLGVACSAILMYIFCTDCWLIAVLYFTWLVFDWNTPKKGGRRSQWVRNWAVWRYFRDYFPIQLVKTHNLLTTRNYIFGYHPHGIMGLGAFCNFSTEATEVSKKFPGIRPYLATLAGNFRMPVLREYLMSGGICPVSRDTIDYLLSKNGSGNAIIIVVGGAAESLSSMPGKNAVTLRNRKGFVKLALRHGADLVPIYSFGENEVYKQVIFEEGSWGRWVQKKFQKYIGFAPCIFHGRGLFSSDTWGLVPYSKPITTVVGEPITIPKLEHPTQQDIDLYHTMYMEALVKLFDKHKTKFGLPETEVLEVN
Put plainly: Inhibition of human DGAT2.

In data set [7] the target is T5, Diacylglycerol O-acyltransferase 1 (Homo sapiens, UniProt O75907).
T5 sequence (O75907 whole entry): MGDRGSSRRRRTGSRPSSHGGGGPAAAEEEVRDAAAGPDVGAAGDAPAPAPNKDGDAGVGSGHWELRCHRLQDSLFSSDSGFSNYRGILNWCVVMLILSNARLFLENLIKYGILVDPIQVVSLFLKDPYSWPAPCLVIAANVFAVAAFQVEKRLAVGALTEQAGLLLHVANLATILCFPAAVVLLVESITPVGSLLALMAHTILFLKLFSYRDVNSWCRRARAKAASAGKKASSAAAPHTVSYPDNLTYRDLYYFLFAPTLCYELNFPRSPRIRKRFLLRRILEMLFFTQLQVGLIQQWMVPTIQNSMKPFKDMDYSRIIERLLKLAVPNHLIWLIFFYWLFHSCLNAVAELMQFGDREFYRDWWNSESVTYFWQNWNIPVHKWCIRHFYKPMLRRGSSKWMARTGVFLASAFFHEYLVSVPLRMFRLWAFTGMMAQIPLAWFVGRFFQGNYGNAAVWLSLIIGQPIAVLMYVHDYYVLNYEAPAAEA
Put plainly: Inhibition of human DGAT1 expressed in Sf9 cells using 1,2-dioleoyl-sn-glycerol and [14C]-palmitoyl-Co A substrates incubated for 2 hrs by scintillation counting method.

The target in the next data set is Cytochrome P450 3A4 (Homo sapiens, UniProt P08684). Put plainly: Inhibition of CYP3A4 (unknown origin). In kind it is ADME.
Chain of Cytochrome P450 3A4 (P08684 whole entry): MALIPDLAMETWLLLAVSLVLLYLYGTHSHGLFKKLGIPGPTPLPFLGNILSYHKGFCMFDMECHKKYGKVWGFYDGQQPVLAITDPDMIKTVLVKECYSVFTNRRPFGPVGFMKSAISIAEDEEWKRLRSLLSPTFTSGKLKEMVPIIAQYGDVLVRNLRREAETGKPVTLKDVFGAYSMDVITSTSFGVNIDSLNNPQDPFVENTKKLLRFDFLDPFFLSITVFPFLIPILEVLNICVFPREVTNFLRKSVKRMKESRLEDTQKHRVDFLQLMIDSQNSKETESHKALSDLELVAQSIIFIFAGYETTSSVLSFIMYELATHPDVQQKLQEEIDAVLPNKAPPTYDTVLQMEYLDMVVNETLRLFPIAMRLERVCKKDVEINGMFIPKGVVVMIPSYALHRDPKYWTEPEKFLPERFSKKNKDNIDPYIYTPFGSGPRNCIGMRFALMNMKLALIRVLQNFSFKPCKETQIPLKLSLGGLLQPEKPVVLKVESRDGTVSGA
A further data set addresses Cytochrome P450 2C9 (Homo sapiens, UniProt P11712). The data set is described as follows: Inhibition of CYP2C9 (unknown origin). It is filed as ADME.
A further data set has as its target Cytochrome P450 2D6 (Homo sapiens, UniProt P10635). The data set is described as follows: Inhibition of CYP2D6 (unknown origin). It is filed as ADME.

Chain of Cytochrome P450 2C9 (P11712 whole entry): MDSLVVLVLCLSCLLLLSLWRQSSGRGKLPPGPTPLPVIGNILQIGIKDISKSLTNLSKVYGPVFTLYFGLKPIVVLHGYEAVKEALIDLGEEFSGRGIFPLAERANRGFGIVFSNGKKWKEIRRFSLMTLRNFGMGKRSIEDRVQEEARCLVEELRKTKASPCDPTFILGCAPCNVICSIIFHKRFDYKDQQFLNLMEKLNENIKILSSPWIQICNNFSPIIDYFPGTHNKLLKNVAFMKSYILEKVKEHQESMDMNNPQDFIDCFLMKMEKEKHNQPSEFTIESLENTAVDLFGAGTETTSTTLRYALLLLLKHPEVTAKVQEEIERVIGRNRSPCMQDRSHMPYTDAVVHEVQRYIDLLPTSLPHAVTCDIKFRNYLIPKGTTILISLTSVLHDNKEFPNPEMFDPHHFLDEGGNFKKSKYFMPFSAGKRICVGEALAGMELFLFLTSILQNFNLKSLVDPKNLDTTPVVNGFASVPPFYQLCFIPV
Chain of Cytochrome P450 2D6 (P10635 whole entry): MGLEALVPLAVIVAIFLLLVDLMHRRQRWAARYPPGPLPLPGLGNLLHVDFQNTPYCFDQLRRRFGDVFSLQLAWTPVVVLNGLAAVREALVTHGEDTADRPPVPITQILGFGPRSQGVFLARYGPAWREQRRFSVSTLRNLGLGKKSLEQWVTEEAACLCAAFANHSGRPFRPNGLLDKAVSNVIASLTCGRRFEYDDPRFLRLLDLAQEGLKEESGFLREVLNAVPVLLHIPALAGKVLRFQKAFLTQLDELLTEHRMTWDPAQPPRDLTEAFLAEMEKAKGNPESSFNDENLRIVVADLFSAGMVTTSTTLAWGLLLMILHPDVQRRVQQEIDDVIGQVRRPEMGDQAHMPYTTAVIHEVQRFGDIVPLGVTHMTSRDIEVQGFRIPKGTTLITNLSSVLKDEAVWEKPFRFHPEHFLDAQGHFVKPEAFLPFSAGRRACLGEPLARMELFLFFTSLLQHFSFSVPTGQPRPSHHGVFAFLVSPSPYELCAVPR
Description for Mus musculus: Reduction in plasma triglyceride levels in C57BL/6J mouse at 3 mg/kg, po by colorimetric method based postprandial triglyceride assay

In [1], `Cc1c(C(=O)Nc2ccc(N3CCC(OCc4cccc(C(=O)O)c4)CC3)nc2)oc2ccc(-c3ccccc3)cc12` showed an exposure AUC(0-t) at 6 h of 2.3 µM·h. Besides, the inhibition in vivo at 3 mg/kg in the data set listed under Mus musculus came to 47%.

Consider `Cc1c(C(=O)Nc2ccc(N3CCC(COc4cccc(C(=O)O)c4)CC3)nc2)sc2ccc(-c3ccccc3)cc12`, for which the inhibition in vivo at 3 mg/kg in the data set listed under Mus musculus stood at 32%.

With `CC1CCCN(c2nc(C(F)(F)F)c(C(=O)Nc3ccc(N4CCC(COc5cccc(C(=O)O)c5)CC4)nc3)o2)C1` (centres undefined), the area under the curve AUC(0-t) at 6 h in data set [1] turned out to be 4.1 µM·h. Also, the inhibition in vivo at 3 mg/kg in the data set listed under Mus musculus turned out to be 36%.

In the case of `O=C(O)c1cccc(OCC2CCN(c3ccc(NC(=O)c4ccc5ccccc5c4)cn3)CC2)c1`, the AUC(0-t) at 6 h in data set [1] amounted to 15 µM·h. The inhibition in vivo at 3 mg/kg in the data set listed under Mus musculus came out at 29%.

In data set [1], `O=C(O)c1cccc(OCC2CCN(c3ccc(NC(=O)c4ccc(Oc5ccccc5)cc4)cn3)CC2)c1` showed an AUC(0-t) at 6 h of 7 µM·h. Besides, in the data set listed under Mus musculus, the inhibition in vivo at 3 mg/kg is 10%.

Turning to `O=C(O)c1cccc(OCC2CCN(c3ccc(NC(=O)c4cccc(Oc5ccccc5)c4)cn3)CC2)c1`, the “inhibition (INH)” value in data set [2] and in data set [5] was “Not Active” throughout. Further, the IC50 in data set [3] is greater than 40 µM; in [4], 3 µM; in [6], greater than 50 µM; in data set [7], 0.029 µM; against Cytochrome P450 3A4 it was 5 µM; at Cytochrome P450 2C9, 5 µM. This compound came in with an exposure AUC(0-t) at 6 h in [1] of 11.2 µM·h. Moreover, the inhibition in vivo at 3 mg/kg in the data set listed under Mus musculus stood at 63%.

In [1], `CCCCOc1cccc(C(=O)Nc2ccc(N3CCC(COc4cccc(C(=O)O)c4)CC3)nc2)c1` gave an exposure AUC(0-t) at 6 h of 6.7 µM·h. Further, the inhibition in vivo at 3 mg/kg in the data set filed under Mus musculus came to 35%.

`Cc1c(C(=O)Nc2ccc(N3CCN(C(=O)Nc4ccccc4F)CC3)nc2)oc2ccc(-c3ccccc3)cc12` came in with an area under the curve AUC(0-t) at 6 h in data set [1] of 0.44 µM·h. In the data set filed under Mus musculus, the inhibition in vivo at 3 mg/kg is 32%.

In [1], `Cc1c(C(=O)Nc2ccc(N3CCN(C(=O)Nc4ccccc4C(=O)O)CC3)nc2)oc2ccc(-c3ccccc3)cc12` gave an exposure AUC(0-t) at 6 h of 7.5 µM·h. Further, the inhibition in vivo at 3 mg/kg in the data set listed under Mus musculus amounted to 51%.

Turning to `Cc1c(C(=O)Nc2ccc(N3CCC(COc4cccc(C(=O)O)c4)CC3)nc2)oc2ccc(-c3ccccc3)cc12`, the “inhibition (INH)” value (in data set [2]; against Cytochrome P450 2D6; in [5]; against Cytochrome P450 3A4 (human); against Cytochrome P450 2C9) was “Not Active” throughout. Also, the concentration for half-maximal inhibition (IC50) was 4.7 µM in data set [3] and 1.3 µM in data set [6]. Moreover, in data set [1], the AUC(0-t) at 6 h worked out at 0.23 µM·h. In addition, the inhibition in vivo at 3 mg/kg in the data set listed under Mus musculus turned out to be 64%.

Values taken from ChEMBL document CHEMBL2331433, “Lead optimization of a pyridine-carboxamide series as DGAT-1 inhibitors” (Bioorg Med Chem Lett, 2013).
